# Counter-ions that a name gives are not always drawn. Like-named read-outs stand apart in the source and are kept apart here.
# How the values were obtained:
# [1] = tested on: GC3 human colon carcinoma cells; assay: cells; type: cell-based; details: 72 hours incubation, MTT
# Experimental: Selected wells of a 96 well plate were seeded with GC3 human colon carcinoma cells ([…] cells in 100µl assay medium/well) twenty four hours prior to test compound addition. Cell free assay medium was added to other select wells of the 96 well plate. The assay medium (RPMI-1640 was the medium used; however, any medium that will allow the cells to survive would be acceptable) was supplemented with 10% dialyzed fetal bovine serum and 25 mM HEPES buffer.
# The test compound was stored in an amber bottle prior to testing. Fresh dimethylsulfoxide stock solution (200µg/ml) was prepared immediately prior to preparation of test sample dilutions in phosphate-buffered saline (PBS). A dilution of 1:20 dimethylsulfoxide solution in PBS was prepared such that the final concentration was 10 µg/ml. Serial 1:3 dilutions using PBS (.5ml previous sample of 1ml PBS) were prepared. Falcon 2054 tubes were used for the assay.
# A 10ul sample of each dilution of test compound was added in triplicate to wells of GC3 plates. The plates were incubated for 72 hours at about 37°C. A 10µl sample of stock […] salt ("MTT" 5 mg/ml in PBS) was added to each well. The plates were incubated for about an hour at 37°. The plates were centrifuged, media was decanted from the wells and 100µl acid-isopropanol (0.04 N HCl in isopropanol) was added to each well. The plate was read within one hour using a test wavelength of 570nm (SpectraMax reader).
# [2] = tested on: A-10 rat aortic smooth muscle cells; assay: Immunofluorescence: effects on the cytoskeleton; type: cell-based; details: A-10 cells, 2µM cytochalasin B, 24 hours
# Experimental: (§1) A-10 cells are grown to near-confluency on glass coverslips in BME/10% FBS. Compounds in PBS are added to the indicated final concentrations and cells are incubated for an additional 24 hours. For the staining of microtubules and intermediate filaments, the cells are fixed with cold methanol and incubated with PBS containing 10% calf serum to block nonspecific binding sites. Cells are then incubated at 37°C for 60 min. With either monoclonal anti-β-tubulin or with monoclonal anti-vimentin at dilutions recommended by the manufacturer. Bound primary antibodies are subsequently visualized by a 45 minute incubation with fluorescein-conjugated rabbit antimouse IgG. The coverslips are mounted on microscope slides and the fluorescence patterns are examined and photographed using a Zeiss Photomicroscope I11 equipped with epifluorescence optics for fluorescein. […] PBS containing 100nM TRITC-phalloidin is then added and the mixture is allowed to incubate for 45 min. At 37°C. The cells are washed rapidly with PBS before the coverslips are mounted and immediately photographed as described above.
# After 24 hours, microtubules and vimentin intermediate filaments are visualized by indirect immunofluorescence and microfilaments are stained using TRITC-phalloidin. The morphological effects of each drug is examined. […]
# physchem [3] = assay: physchem
# Source text: Table 4. Solubility of cryptophycin glycinate 12 in various parenteral vehicles.
# physchem [4] = type: physicochemical; details: for solubility: water
# A-10 cells [5] = assay: Reversibility of microtubule depolymerization; type: cell-based, rat; details: 100nM vinblastine 24 hr
# Experimental: as §1
# The cells are then washed and incubated in drug-free medium for periods of 1 hour or 24 hours. […] Cells are visualized for microtubule state after treatment with a cryptophycin compound of this invention at either 1 hour or 24 hours after removal of the cryptophycin compounds.
# A-10 cells [6] = assay: Effects on taxol-stabilized microtubules; type: cell-based, rat
# Experimental: as §1
# After 24 hours, microtubule organization is examined by immunofluorescence as described above. […] Similarly, microtubules pretreated with taxol are observed with cryptophycin treatment.
# [7] = pH 8, room temperature, read-out: solubility value
molecule,measurement,setting,value
"Cryptophycin 55 3,6,9-tioxadecanoate [Compound 48]",IC50,[1]; Table 2 of Example 94,10 nM
"COc1ccc(CC2NC(=O)C=CCC(C(C)C(OC(=O)CCN)C(Cl)c3ccccc3)OC(=O)C(CC(C)C)OC(=O)C(C)(C)CNC2=O)cc1Cl (stereo not shown) [Compound 14, Cryptophycin 55 b-alaninate hydrochloride salt]",IC50,[1],21 nM
Cryptophycin 55 N-methylpyridinium acetate salt [Compound 8],IC50,[1],2.2 nM
same,IC50,[1]; Table 2 of Example 94,116 nM
Cryptophycin 55 (2'-di-t-butylphosphatyl)phenylacetate [Compound 5],IC50,[1]; Table 2 of Example 94,31 nM
"COc1ccc(CC2NC(=O)C=CCC(C(C)C(OC(=O)C(N)CCCCN)C(Cl)c3ccccc3)OC(=O)C(CC(C)C)OC(=O)C(C)(C)CNC2=O)cc1Cl (stereo not shown) [Compound 34, Cryptophycin 55 (D)-lysinate di-hydrochloride salt]",IC50,[1]; Table 2 of Example 94,6.5 nM
Cryptophycin 55 nicotinoate hydrochloride salt [Compound 7],IC50,[1],116 nM
same,IC50,[1]; Table 2 of Example 94,3.7 nM
Cryptophycin 55 (L) -γ-glutamate hydrochloride salt [Compound 42],IC50,[1]; Table 2 of Example 94,15 nM
"COc1ccc(CC2NC(=O)C=CCC(C(C)C(OC(=O)C(N)CO)C(Cl)c3ccccc3)OC(=O)C(CC(C)C)OC(=O)C(C)(C)CNC2=O)cc1Cl (stereo not shown) [Compound 46, Cryptophycin 55 (L)-serinate hydrochloride salt]",IC50,[1]; Table 2 of Example 94,50 nM
"C=C1[C@@H](C)[C@H]2[C@H](Cc3ccccc3)NC(=O)[C@]23OC(=O)/C=C/[C@H](O)CCC[C@@H](C)C/C=C/[C@H]3[C@@H]1O [Cytochalasin B, cytochalasin B]",effect on microfilaments,[2]; TRITC-phalloidin,complete depolymerization of microfilaments
same,effect on distribution of microtubules and intermediate filaments,[2]; indirect immunofluorescence,did not affect the distribution of either microtubules or intermediate filaments
Cryptophycin 55 (L)-aspartate hydrochloride salt [Compound 38],IC50,[1]; Table 2 of Example 94,1.6 nM
Cryptophycin 55 N-t-Boc-3-(3-chloro-4-methoxyphenyl)-(D)-alaninate [Compound 9],IC50,[1]; Table 2 of Example 94,2.2 nM
"COc1ccc(C[C@H]2NC(=O)/C=C/C[C@@H]([C@H](C)[C@@H](O)[C@@H](Cl)c3ccccc3)OC(=O)[C@H](CC(C)C)OC(=O)C(C)(C)CNC2=O)cc1Cl [Compound 1, cryptophycin 55]",Comparative solubilities,"physchem [3]; excipient 1: Propylene Glycol 15, Ethanol 10 %v/v, volume adjusted 0.05M acetate buffer, BQL = Below quantitation limit, approximately 0.001 mg/ml",BQL
same,aqueous solubility over the pH range studied,"physchem [4]; aqueous pH 4-8, room temperature",declined as the pH bacame basic
same,solubility,"physchem [4]; pH 4, water, pH of 4, read-out: aqueous solubility value",~50 µg/mL
same,solubility,physchem [4]; [7],10 µg/mL
Cryptophycin 55 N-t-Boc-(D)-alaninate [Compound 19],IC50,[1]; Table 2 of Example 94,0.1 nM
Cryptophycin 55 (D)-aspartate hydrochloride salt [Compound 40],IC50,[1]; Table 2 of Example 94,2 nM
Cryptophycin 55 N-t-Boc-glycinate [Compound 11],IC50,[1]; Table 2 of Example 94,6.8 nM
Cryptophycin 55 Na-Ne-di-t-Boc-(L)-lysinate [Compound 21],IC50,[1]; Table 2 of Example 94,21 nM
"CC[C@]1(O)C[C@@H]2CN(CCc3c([nH]c4ccccc34)[C@@](C(=O)OC)(c3cc4c(cc3OC)N(C)[C@H]3[C@@](O)(C(=O)OC)[C@H](OC(C)=O)[C@]5(CC)C=CCN6CC[C@]43[C@@H]65)C2)C1 [Vinblastine, vinblastine]",microtubule repolymerization after removal of drug,A-10 cells [5]; then drug-free medium 1 hour,significant levels of microtubules
same,microtubule repolymerization after removal of drug,A-10 cells [5]; then drug-free medium 24 hours,complete morphological recovery
same,"microtubule depolymerization, non-pretreated cells","A-10 cells [6]; 100nM vinblastine, 24 hours",complete depolymerization of microtubules
same,microtubule depolymerization after pretreatment with taxol,"A-10 cells [6]; 3 hours 10µM taxol, then 100nM vinblastine, 24 hours",pretreatment with taxol prevented microtubule depolymerization
"CC(=O)O[C@H]1C(=O)[C@@]2(C)[C@H]([C@H](OC(=O)c3ccccc3)[C@]3(O)C[C@H](OC(=O)[C@H](O)[C@@H](NC(=O)c4ccccc4)c4ccccc4)C(C)=C1C3(C)C)[C@]1(OC(C)=O)CO[C@@H]1C[C@@H]2O [Taxol, taxol]",microtubule organization,"A-10 cells [6]; 10µM taxol, compared with control cells",extensively bundled
Cryptophycin 55 (L)-α-glutamate hydrochloride salt [Compound 36],IC50,[1]; Table 2 of Example 94,2.8 nM
Cryptophycin 55 glycidylglycinate hydrochloride salt [Compound 47],IC50,[1]; Table 2 of Example 94,2.5 nM
COc1ccc(C[C@H]2NC(=O)/C=C/C[C@@H]([C@H](C)[C@@H](OC(=O)CN)[C@@H](Cl)c3ccccc3)OC(=O)[C@H](CC(C)C)OC(=O)C(C)(C)CNC2=O)cc1Cl [Compound 12],solubility,"physchem [3]; 0.05m acetate buffer, pH 4, aqueous buffer, Comparative solubilities, excipient 5: 0.05M Acetate buffer pH 4.0 100 %v/v",30 µg/mL
same,solubility,"physchem [3]; emulphor el719 in acetate buffer, aqueous buffer, Comparative solubilities, excipient 4: Emulphor EL719 1 (w/v), volume adjusted 0.05M acetate buffer",1500 µg/mL
same,solubility,"physchem [3]; ethanol/acetate buffer, pH 4, organic solvent or mixture, Solubility in parenteral vehicle, vehicle 3: Ethanol 10 %v/v, 0.05M Acetate buffer pH 4.0 qs",1290 µg/mL
same,solubility,"physchem [3]; ethanol/propylene glycol/acetate buffer, pH 4, organic solvent or mixture, Solubility in parenteral vehicle, vehicle 2: Ethanol 10, Propylene Glycol 10 %v/v, 0.05 M Acetate buffer pH 4.0 qs",1990 µg/mL
same,solubility,"physchem [3]; ethanol/propylene glycol/acetate buffer, pH 4, organic solvent or mixture, Solubility in parenteral vehicle, vehicle 6: Ethanol 10, Propylene Glycol 25 %v/v, 0.05 M Acetate buffer pH 4.0 qs",10300 µg/mL
same,solubility,"physchem [3]; ethanol/propylene glycol/acetate buffer, pH 4, organic solvent or mixture, Solubility in parenteral vehicle, vehicle 7: Ethanol 10, Propylene Glycol 15 %v/v, 0.05 M Acetate buffer pH 4.0 qs",4320 µg/mL
same,solubility,"physchem [3]; ethanol/propylene glycol/citrate buffer, pH 4, organic solvent or mixture, Solubility in parenteral vehicle, vehicle 1: Ethanol 10, Propylene Glycol 10 %v/v, 0.05 M Citrate buffer pH 4.0 qs",110 µg/mL
same,solubility,"physchem [3]; polysorbate 80/acetate buffer, pH 4, Solubility in parenteral vehicle, vehicle 5: Polysorbate 80 0.5 (w/v), 0.05 M Acetate buffer pH 4.0 qs",2210 µg/mL
same,solubility,"physchem [3]; polysorbate 80 in acetate buffer, aqueous buffer, Comparative solubilities, excipient 3: Polysorbate 80 1(w/v), volume adjusted 0.05M acetate buffer, BQL = Below quantitation limit, approximately 0.001 mg/ml",1000 to 2000 µg/mL
same,solubility,"physchem [3]; propylene glycol/acetate buffer, pH 4, organic solvent or mixture, Solubility in parenteral vehicle, vehicle 4: Propylene Glycol 10 %v/v, 0.05 M Acetate buffer pH 4.0 qs",1580 µg/mL
same,solubility,"physchem [3]; propylene glycol/ethanol/acetate buffer, organic solvent or mixture",> 2000 µg/mL
same,solubility,"physchem [3]; propylene glycol/peg 3000/acetate buffer, organic solvent or mixture",> 2000 µg/mL
same,IC50,"[1]; Homo sapiens, Colon carcinoma cell",0.1 nM
same,solubility,physchem [4]; [7],30 µg/mL
"COc1ccc(CC2NC(=O)C=CCC(C(C)C(OC(=O)C(C)N)C(Cl)c3ccccc3)OC(=O)C(CC(C)C)OC(=O)C(C)(C)CNC2=O)cc1Cl (stereo not shown) [Compound 18, Cryptophycin 55 (L)-alaninate hydrochloride salt]",IC50,[1],2.6 nM
"COc1ccc(CC2NC(=O)C=CCC(C(C)C(OC(=O)[C@@H](N)CN)C(Cl)c3ccccc3)OC(=O)C(CC(C)C)OC(=O)C(C)(C)CNC2=O)cc1Cl (stereo partly drawn) [Compound 44, Cryptophycin 55 (S)-2,3-diaminopropionate dihydrochloride salt]",IC50,[1]; Table 2 of Example 94,28 nM
"COc1ccc(C[C@H]2NC(=O)/C=C/C[C@@H]([C@H](C)[C@@H](OC(=O)[C@@H](N)CCCCN)[C@@H](Cl)c3ccccc3)OC(=O)[C@H](CC(C)C)OC(=O)C(C)(C)CNC2=O)cc1Cl [Compound 22, Cryptophycin 55 (L)-lysinate di-hydrochloride salt]",IC50,[1],7.2 nM
